Test [1] deals with Cyclin-dependent kinase 2 (Homo sapiens, UniProt P24941). In words: Inhibition of CDK2 (unknown origin) expressed in baculovirus infected Sf9 cells in presence of [gamma-33p]-ATP and ATP.
The target of test [2] is Cyclin-dependent kinase 5/p25. In words: Inhibition of CDK5/p25 (unknown origin).
Test [3] concerns the target Cyclin-dependent kinase 2/cyclin A. In words: Inhibition of CDK2/cyclin A (unknown origin).

As for `CC(C)c1n[nH]c2c(NCc3ccc(-c4ccccn4)cc3)nc(NCC(C)(C)O)nc12`, the 50% inhibitory concentration (IC50) – broadly, the concentration needed to halve the response being measured – in test [1] stood at 9 nM.
`Cc1cc(S(=O)(=O)NCCOCCOCCOCCOCCNc2cccc3c2C(=O)N(C2CCC(=O)NC2=O)C3=O)ccc1Nc1ncc(Br)c(Nc2cccc(F)c2C(N)=O)n1` (stereo not drawn) came in with a 50% inhibitory concentration (IC50) in test [2] of 6.8 nM.
As for `O=C(Nc1csc(Cc2c(Cl)cccc2Cl)n1)NN1CCOCC1` [1-[2-(2,6-Dichloro-benzyl)-thiazol-4-yl]-3-morpholin-4-yl-urea], it took 10000 nM to reach half-maximal inhibition in test [3] (IC50).

Source of the values: BindingDB's records for doi:10.1021/acs.jmedchem.3c00566 (Sichuan University, 2023).
